Source: patent US9476099B2 (TRUSTEES OF DARTMOUTH COLLEGE, priority 2012, dated 2016)

Tested on: NT2/D1-R1 control and DNMT3B knockdown cells
Experiment: Genome-wide expression analysis with PAM clusters, control and DNMT3B knockdown cells (Tables 8-14)
Conditions: 10 nM, 3 days; NT2/D1-R1

Nc1ncn([C@H]2C[C@H](O)[C@@H](CO)O2)c(=O)n1 [decitabine, 5-aza-deoxycytidine]
Cluster 1: genes down-regulated by low dose decitabine in control cells but not in DNMT3B knockdown cells: 129 genes
Cluster 2: genes induced by decitabine only in control cells and not in sh-DNMT3B cells: 337 genes
